Assay results as given in patent US9643969B2, “(aza)indolizine derivative and pharmaceutical use thereof” (KISSEI PHARMACEUTICAL CO., LTD., priority 2010, dated 2017).

What was measured:
[1] = molecular target: T1, Xanthine oxidase (from bovine milk) (Bos taurus, UniProt P80457); test: Xanthine oxidase inhibitory activity; format: biochemical; conditions: xanthine 200 μM added at 100 μL/well, 10 minutes at room temperature, absorbance at 290 nm
T1 construct: Xanthine oxidase (from bovine milk, manufactured by Sigma); purchased Sigma; host or cells: bovine milk
Procedure: Xanthine Oxidase Inhibitory Activity
(1) Preparation of Test Compounds
Test compounds were dissolved in dimethyl sulfoxide (DMSO) (manufactured by Wako pure chemical) at 40 mM concentration and then diluted to intended concentrations with phosphate-buffered saline (PBS).
(2) Method of Measurement
Xanthine oxidase (from bovine milk, manufactured by Sigma) was prepared with phosphate-buffered saline (PBS) at 0.02 units/mL, and then the solution was added to 96-well plates at 50 μL/well. In addition, test compounds diluted with PBS were added at 50 μL/well. Xanthine (manufactured by Wako pure chemical) at 200 μM prepared with PBS was added at 100 μL/well, and the reaction was conducted for 10 minutes at room temperature. Absorbance at 290 nm was measured by using a microplate reader SpectraMax Plus 384 (manufactured by Molecular device). The absorbance under a condition without xanthine is 0%, and control without test compounds is 100%. Fifty % inhibitory concentration of a test compound (IC50) was calculated (Table 4). “Ex. No” in the table indicates Example number.

Acute toxicity test = format: in vivo; conditions: 300 mg/kg orally, male ICR mice, 24 hours after administration
Procedure: Test compounds of Examples 2 and 12 (300 mg/kg) suspended in 0.5% methylcellulose solution were orally administered to male ICR mice (7-week-old, 5 mice per group), and the general condition during 24 hours after administration was observed.

[2] = Hypouricemic effect (serum uric acid levels in rats); format: in vivo; conditions: oral administration at 1 mg/kg; male CD (SD) IGS rats; serum at 2 hours after administration
Procedure: (1) Method of Measurement
Test compounds (1 mg/kg) suspended in 0.5% methylcellulose solution were orally administered to overnight fasted male CD (SD) IGS rats (5-week-old, Charles River Japan). At 2 hours after administration, blood was collected under ether anesthesia from abdominal aorta, and serum was separated according to a general method. Serum uric acid levels were determined by use of uric acid measurement kit (Uric acid C-Test Wako: manufactured by Wako pure chemical), and percent decrease in uric acid was calculated according to the formula described below. Percent decrease in uric acid (%)=(Serum uric acid levels in control animals−Serum uric acid levels in animals administered test compounds)×100/Serum uric acid levels in control animals (2) Results

human URAT1 = molecular target: T2, human URAT1 (Homo sapiens, UniProt Q96S37); test: Inhibitory activity of uric acid transport with human URAT1-expressing cells; format: cell-based; conditions: 10 μM test compound; URAT1-expressing HEK293 cells; 14C uric acid 50 μM, 2 minutes at 37° C.; read-out: percent inhibition of uric acid uptake
T2 construct: expressed in transfected cells; host or cells: HEK293 cells
T2 sequence (Q96S37 1-553): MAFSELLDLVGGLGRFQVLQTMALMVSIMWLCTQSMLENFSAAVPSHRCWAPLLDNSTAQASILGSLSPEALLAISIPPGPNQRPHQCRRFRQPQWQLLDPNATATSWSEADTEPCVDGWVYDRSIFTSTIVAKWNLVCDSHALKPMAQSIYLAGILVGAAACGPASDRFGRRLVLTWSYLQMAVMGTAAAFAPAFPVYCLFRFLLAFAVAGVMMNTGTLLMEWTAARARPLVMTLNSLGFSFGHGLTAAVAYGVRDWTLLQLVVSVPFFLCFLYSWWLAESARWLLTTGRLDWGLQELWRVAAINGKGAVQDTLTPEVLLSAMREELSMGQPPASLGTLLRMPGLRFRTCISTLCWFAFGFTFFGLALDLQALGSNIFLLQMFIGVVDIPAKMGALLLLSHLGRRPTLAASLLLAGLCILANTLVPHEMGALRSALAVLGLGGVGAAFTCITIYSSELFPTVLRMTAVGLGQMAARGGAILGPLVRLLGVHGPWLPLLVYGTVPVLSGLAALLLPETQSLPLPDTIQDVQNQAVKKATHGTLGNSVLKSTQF
Procedure: Inhibitory Activity of Uric Acid Transport with Human URAT1-Expressing Cells
(1) Cells Used in the Test
URAT1-expressing HEK293 cells (HEK293 cells transfected with vector containing human URAT1 cDNA) and control cells (HEK293 cells transfected with vector alone) were used.
URAT1-expressing cells and control cells were seeded in collagen I-coated 24-well plates (manufactured by BD FALCON) at 1 to 4×10^5 cells/well, and cultured in CO2 incubator (37° C., CO2: 5%) for 1 to 3 days, and then the following measurement of uric acid transport was conducted. In addition, Dulbecco's Modified Eagle Medium (manufactured by Invitrogen) containing 9% fetal bovine serum (manufactured by Invitrogen), antibiotic-antimycotic (manufactured by Invitrogen) and 2 mmol/L L-glutamine were used for the culture.
(2) Preparation of Test Compounds
^14C-labeled uric acid (^14C uric acid) (manufactured by American Radiolabeled Chemicals, Inc.) was dissolved in Hanks' balanced salt solution (HBSS) (manufactured by Invitrogen) to prepare HBSS containing ^14C uric acid at 50 μM. Test compounds were dissolved in DMSO and then diluted to 1000-fold with the prepared HBSS containing ^14C uric acid above to prepare ^14C uric acid solution containing the indicated concentration of test compounds (final concentration of DMSO: 0.1%). ^14C uric acid solution containing 0.1% DMSO was prepared as a control.
(3) Measurement of Uric Acid Transport
After the medium was removed from the plates in which cells were seeded, and 1 mL of HBSS was added to the cells. After the HBSS was removed, 0.3 mL of HBSS was newly added to the cells, which were incubated at 37° C. for 15 minutes. After the HBSS was removed, 0.3 mL of ^14C uric acid solution containing 0.1% DMSO or test compounds was added to the cells, which were then incubated at 37° C. for 2 minutes. After the incubation, the solution was removed, and the cells were washed once with 1 mL of ice-cold phosphate-buffered saline containing 0.2% BSA, and washed twice with 1 mL of ice-cold PBS. After the PBS was removed, the cells were lysed by addition of 0.5 mL of 0.1 mol/L NaOH aqueous solution for each well. The cell lysates (0.3 mL/well) were transferred into glass vials, and mixed with 10 mL of a scintillator (Hionic-Fluor, manufactured by Perkin Elmer). The radioactivity was measured by means of a liquid scintillation counter.
(4) Protein Determination
Protein concentration in the cell lysates was determined by BCA Protein Assay Kit (manufactured by Pierce) and then amount of protein (mg/well) was calculated.
(5) Calculation of the Percent Inhibition of Uric Acid Uptake for Each Compound
Uric acid uptake activity in each well was calculated by the following formula. Uric acid uptake activity (p mol/mg protein)=radioactivity (dpm/well)/[amount of protein (mg/well)×concentration of radioactivity in HBSS containing ^14C uric acid (dpm/p mol)]
Percent inhibition was calculated according to the following formula. Percent inhibition (%)=[1−(B−C)/(A−C)]×100 • A: Uric acid uptake activity in URAT1-expressing HEK293 cells in the presence of 0.1% DMSO • B: Uric acid uptake activity in URAT1-expressing HEK293 cells in the presence of test compounds • C: Uric acid uptake activity in control cells in the presence of 0.1% DMSO (6) Results

T1 sequence (P80457 whole entry): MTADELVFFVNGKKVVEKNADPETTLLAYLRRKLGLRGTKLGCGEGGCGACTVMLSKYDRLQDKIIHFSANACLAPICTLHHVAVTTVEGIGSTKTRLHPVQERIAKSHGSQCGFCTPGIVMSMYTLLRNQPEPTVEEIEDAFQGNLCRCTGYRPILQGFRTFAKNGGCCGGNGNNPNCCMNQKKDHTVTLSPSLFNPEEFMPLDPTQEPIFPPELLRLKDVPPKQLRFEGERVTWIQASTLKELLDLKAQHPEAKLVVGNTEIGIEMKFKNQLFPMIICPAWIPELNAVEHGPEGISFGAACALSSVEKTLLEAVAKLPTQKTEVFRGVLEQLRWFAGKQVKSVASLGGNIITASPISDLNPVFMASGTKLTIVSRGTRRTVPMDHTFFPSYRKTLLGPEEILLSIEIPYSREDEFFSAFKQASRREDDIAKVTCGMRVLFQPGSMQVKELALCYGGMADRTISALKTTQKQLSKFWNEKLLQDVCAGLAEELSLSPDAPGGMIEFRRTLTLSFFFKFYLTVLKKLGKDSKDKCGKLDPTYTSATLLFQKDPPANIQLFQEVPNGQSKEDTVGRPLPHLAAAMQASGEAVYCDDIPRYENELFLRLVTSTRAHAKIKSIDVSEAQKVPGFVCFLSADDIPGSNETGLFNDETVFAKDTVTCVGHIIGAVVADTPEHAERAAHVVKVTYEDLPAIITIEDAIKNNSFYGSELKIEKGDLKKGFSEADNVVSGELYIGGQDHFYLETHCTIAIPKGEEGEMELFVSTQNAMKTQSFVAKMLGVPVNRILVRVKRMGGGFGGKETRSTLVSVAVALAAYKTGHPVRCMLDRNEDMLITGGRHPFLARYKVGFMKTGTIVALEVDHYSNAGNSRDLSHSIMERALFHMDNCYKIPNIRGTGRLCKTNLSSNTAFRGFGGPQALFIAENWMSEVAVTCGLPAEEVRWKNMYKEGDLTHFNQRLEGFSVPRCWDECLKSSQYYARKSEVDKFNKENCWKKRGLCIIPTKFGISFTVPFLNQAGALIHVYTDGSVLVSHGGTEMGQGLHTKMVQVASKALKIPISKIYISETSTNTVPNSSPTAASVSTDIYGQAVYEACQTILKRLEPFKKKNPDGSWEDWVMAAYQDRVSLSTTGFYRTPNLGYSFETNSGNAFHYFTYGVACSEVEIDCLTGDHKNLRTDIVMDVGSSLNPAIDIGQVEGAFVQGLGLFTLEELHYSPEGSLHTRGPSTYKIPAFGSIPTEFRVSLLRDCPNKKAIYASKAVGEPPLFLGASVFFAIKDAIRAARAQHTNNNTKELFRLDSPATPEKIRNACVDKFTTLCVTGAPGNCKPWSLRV

Compound | IC50 [1] [nM] | general condition (Acute toxicity test) | percent decrease in uric acid [2] | inhibition at 10 µM (human URAT1) [%]
N#Cc1cc(-c2ccc(C(=O)O)cc2)c2cccnn12 [Example 1, 4-(7-Cyanopyrrolo[1,2-b]pyridazine-5-yl)benzoic acid] | 7 | – | – | –
N#Cc1cc(-c2ccc(C(=O)O)c(O)c2)c2cccnn12 [Example 2, 4-(7-Cyanopyrrolo[1,2-b]pyridazine-5-yl)-2-hydroxy benzoic acid] | 5 | no abnormalities in general conditions were observed | – | –
Cc1ccc2c(-c3ccc(C(=O)O)c(O)c3)cc(C#N)n2n1 [Example 3] | 5 | – | not less than 60% | ≥ 50
COc1ccc2c(-c3ccc(C(=O)O)c(O)c3)cc(C#N)n2n1 [Example 6] | 3 | – | – | ≥ 50
N#Cc1cc(-c2ccc(C(=O)O)cc2)c2ccccn12 [Example 7] | 8 | – | – | –
N#Cc1cc(-c2ccc(C(=O)O)c(O)c2)c2ccccn12 [Example 8] | 12 | – | – | ≥ 50
N#Cc1cc(-c2ccc(C(=O)O)c(O)c2)c2ccc(F)cn12 [Example 9] | 4 | – | – | ≥ 50
N#Cc1cc(-c2ccc(C(=O)O)cc2)n2ncccc12 [Example 10] | 12 | – | – | –
Cc1ccnn2c(-c3ccc(C(=O)O)cc3)cc(C#N)c12 [Example 11, 4-(5-Cyano-4-methylpyrrolo[1,2-b]pyridazine-7-yl)benzoic acid] | 10 | – | – | –
N#Cc1cc(-c2ccc(C(=O)O)c(O)c2)n2ncccc12 [Example 12] | 4 | no abnormalities in general conditions were observed | – | ≥ 50
N#Cc1cn(-c2ccc(C(=O)O)c(O)c2)c2cccnc12 [Example 15, 4-(3-Cyanopyrrolo[3,2-b]pyridine-1-yl)-2-hydroxy benzoic acid] | 10 | – | – | –
Cc1ccc2c(-c3ccc(C(=O)O)c(O)c3)cc(C#N)n2c1C [Example 16] | 13 | – | – | ≥ 50
